Values joined by “and” are separate entries in the source; they are usually repeats but may differ in a detail not shown here. Equal values may be shown once. Toxic doses and inconclusive results are not listed. No stated cut-off is given here; in the data, active means T/C of 150% or more; inactive means T/C below 125%.
System: L1210 leukemia ip in BDF1 mice, survival T/C
Assay: NCI In Vivo Anticancer Drug Screen. Data for tumor model L1210 Leukemia (intraperitoneal) in B6D2F1 (BDF1) mice
Conditions: endpoint: mean survival time, higher = longer survival
Procedure, shortened: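 Ratio derived from survival: compound-dosed mice over vehicle-dosed mice, all bearing a transplantable tumor.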

[1] = dose: 100.0 mg/kg/injection, schedule: Q01DX001 (ip), vehicle: saline
[2] = dose: 200.0 mg/kg/injection, schedule: Q01DX001 (ip), vehicle: saline
[3] = dose: 100.0 mg/kg/injection, schedule: Q01DX009 (ip), vehicle: saline
[4] = dose: 200.0 mg/kg/injection, schedule: Q01DX009 (ip), vehicle: saline
[5] = dose: 400.0 mg/kg/injection, schedule: Q01DX009 (ip), vehicle: saline
[6] = dose: 100.0 mg/kg/injection, schedule: Q04DX003 (ip), vehicle: saline
[7] = dose: 200.0 mg/kg/injection, schedule: Q04DX003 (ip), vehicle: saline
[8] = dose: 400.0 mg/kg/injection, schedule: Q04DX003 (ip), vehicle: saline
[9] = dose: 100.0 mg/kg/injection, schedule: Q01DX009 (ip), vehicle: Klucel (hydroxypropylcellulose) (HPC)
[10] = dose: 100.0 mg/kg/injection, schedule: Q04DX003 (ip), vehicle: Klucel (hydroxypropylcellulose) (HPC)
[11] = dose: 50.0 mg/kg/injection, schedule: Q01DX009 (ip), vehicle: saline with Tween-80
[12] = dose: 100.0 mg/kg/injection, schedule: Q01DX001 (ip), vehicle: saline with Tween-80
[13] = dose: 200.0 mg/kg/injection, schedule: Q01DX001 (ip), vehicle: saline with Tween-80
[14] = dose: 400.0 mg/kg/injection, schedule: Q01DX001 (ip), vehicle: saline with Tween-80

Measured: T/C

Cc1cc([P+](c2ccccc2)(c2ccccc2)c2ccccc2)c(C)cc1[P+](c1ccccc1)(c1ccccc1)c1ccccc1
inactive: dose: 0.37 mg/kg/injection, schedule: Q04DX003 (ip), vehicle: Klucel (hydroxypropylcellulose) (HPC) 96 % of control | dose: 0.75 mg/kg/injection, schedule: Q04DX003 (ip), vehicle: Klucel (hydroxypropylcellulose) (HPC) 106 % of control | dose: 1.5 mg/kg/injection, schedule: Q04DX003 (ip), vehicle: Klucel (hydroxypropylcellulose) (HPC) 93 % of control | dose: 3.0 mg/kg/injection, schedule: Q04DX003 (ip), vehicle: Klucel (hydroxypropylcellulose) (HPC) 91 % of control

O=C(O)c1cccc(F)c1O
inactive: [1] 97 % of control | [2] 97 % of control

COc1nc(OC)n(C)c(=O)c1OP(=O)(OC)OC
inactive: dose: 50.0 mg/kg/injection, schedule: Q01DX001 (ip), vehicle: saline 98 % of control | [1] 93 % of control | [2] 93 % of control | dose: 400.0 mg/kg/injection, schedule: Q01DX001 (ip), vehicle: saline 95 % of control

Cc1ccc(-n2c(O)c(N=Nc3ccc(Cl)cc3)c(=O)n(-c3ccc(I)cc3)c2=S)cc1
inactive: dose: 37.5 mg/kg/injection, schedule: Q01DX001 (ip), vehicle: Klucel (hydroxypropylcellulose) (HPC) 92 % of control | dose: 75.0 mg/kg/injection, schedule: Q01DX001 (ip), vehicle: Klucel (hydroxypropylcellulose) (HPC) 97 % of control | dose: 150.0 mg/kg/injection, schedule: Q01DX001 (ip), vehicle: Klucel (hydroxypropylcellulose) (HPC) 100 % of control

Clc1nc2ncn3cnnc3c2[nH]1
inactive: dose: 100.0 mg/kg/injection, schedule: Q01DX001 (ip), vehicle: Klucel (hydroxypropylcellulose) (HPC) 108 % of control | dose: 200.0 mg/kg/injection, schedule: Q01DX001 (ip), vehicle: Klucel (hydroxypropylcellulose) (HPC) 98 % of control | dose: 400.0 mg/kg/injection, schedule: Q01DX001 (ip), vehicle: Klucel (hydroxypropylcellulose) (HPC) 93 % of control

CC1COC(C(F)(F)Cl)(C(F)(F)Cl)O1 (configuration not stated)
inactive: [3] 93 % of control and 97 % of control | dose: 100.0 mg/kg/injection, schedule: Q04DX002 (ip), vehicle: saline 96 % of control and 101 % of control | [4] 94 % of control and 92 % of control | dose: 200.0 mg/kg/injection, schedule: Q04DX002 (ip), vehicle: saline 96 % of control and 103 % of control | [5] 93 % of control and 105 % of control | dose: 400.0 mg/kg/injection, schedule: Q04DX002 (ip), vehicle: saline 100 % of control and 105 % of control

CC(=O)NC1(CO)CCCCC1
inactive: [6] 105 % of control | [7] 95 % of control | [8] 94 % of control

CCOC(=O)/C=C\n1c(=O)cc(C)c2ccccc21
inactive: [9] 98 % of control | [10] 89 % of control | dose: 200.0 mg/kg/injection, schedule: Q01DX009 (ip), vehicle: Klucel (hydroxypropylcellulose) (HPC) 108 % of control | dose: 200.0 mg/kg/injection, schedule: Q04DX003 (ip), vehicle: Klucel (hydroxypropylcellulose) (HPC) 92 % of control | dose: 400.0 mg/kg/injection, schedule: Q01DX009 (ip), vehicle: Klucel (hydroxypropylcellulose) (HPC) 108 % of control | dose: 400.0 mg/kg/injection, schedule: Q04DX003 (ip), vehicle: Klucel (hydroxypropylcellulose) (HPC) 87 % of control

O=C(N/N=C/c1cccc([N+](=O)[O-])c1)c1ccccc1Cl
inactive: [11] 98 % of control | dose: 100.0 mg/kg/injection, schedule: Q01DX009 (ip), vehicle: saline with Tween-80 107 % of control | dose: 200.0 mg/kg/injection, schedule: Q01DX009 (ip), vehicle: saline with Tween-80 102 % of control

CC/C(=C/c1ccc(OC)c(OC)c1)[N+](=O)[O-]
inactive: dose: 25.0 mg/kg/injection, schedule: Q01DX009 (ip), vehicle: Klucel (hydroxypropylcellulose) (HPC) 98 % of control | dose: 50.0 mg/kg/injection, schedule: Q01DX009 (ip), vehicle: Klucel (hydroxypropylcellulose) (HPC) 101 % of control | dose: 50.0 mg/kg/injection, schedule: Q04DX003 (ip), vehicle: Klucel (hydroxypropylcellulose) (HPC) 96 % of control | [9] 91 % of control | [10] 104 % of control

CCOC(=O)C(Cl)C(C)(O)c1ccccc1 (configuration not stated)
inactive: dose: 100.0 mg/kg/injection, schedule: Q04DX002 (ip), vehicle: saline with Tween-80 95 % of control | dose: 200.0 mg/kg/injection, schedule: Q04DX002 (ip), vehicle: saline with Tween-80 95 % of control

Clc1cc[c]([Sn]([Cl])([c]2ccc(Cl)cc2)[c]2ccc(Cl)cc2)cc1
inactive: dose: 1.56 mg/kg/injection, schedule: Q01DX009 (ip), vehicle: saline 98 % of control | dose: 3.12 mg/kg/injection, schedule: Q01DX009 (ip), vehicle: saline 106 % of control

NC(=O)c1n[nH]nc1N1CC[N+](CCCl)=N1
inactive: dose: 44.0 mg/kg/injection, schedule: Q01DX009 (ip), vehicle: saline with Tween-80 110 % of control | [11] 111 % of control | dose: 50.0 mg/kg/injection, schedule: Q04DX003 (ip), vehicle: saline with Tween-80 105 % of control | dose: 67.0 mg/kg/injection, schedule: Q01DX009 (ip), vehicle: saline with Tween-80 107 % of control | [3] 96 % of control | dose: 100.0 mg/kg/injection, schedule: Q04DX003 (ip), vehicle: saline with Tween-80 97 % of control and 113 % of control | [6] 107 % of control | dose: 150.0 mg/kg/injection, schedule: Q01DX009 (ip), vehicle: saline with Tween-80 112 % of control | [4] 91 % of control | dose: 200.0 mg/kg/injection, schedule: Q04DX003 (ip), vehicle: saline with Tween-80 118 % of control and 121 % of control | [7] 105 % of control | [5] 95 % of control | dose: 400.0 mg/kg/injection, schedule: Q04DX003 (ip), vehicle: saline with Tween-80 113 % of control | [8] 94 % of control

CCCCCC(=O)c1c(O)cc(=O)oc1C
inactive: dose: 3.12 mg/kg/injection, schedule: Q01DX009 (ip), vehicle: Klucel (hydroxypropylcellulose) (HPC) 95 % of control | dose: 6.25 mg/kg/injection, schedule: Q01DX009 (ip), vehicle: Klucel (hydroxypropylcellulose) (HPC) 98 % of control | dose: 12.5 mg/kg/injection, schedule: Q01DX009 (ip), vehicle: Klucel (hydroxypropylcellulose) (HPC) 103 % of control | [10] 90 % of control

COC(=O)CC(=O)c1cc(C(C)(C)C)cc(C(C)(C)C)c1
inactive: dose: 100.0 mg/kg/injection, schedule: Q04DX003 (ip), vehicle: DMSO 96 % of control | dose: 200.0 mg/kg/injection, schedule: Q04DX003 (ip), vehicle: DMSO 103 % of control

COC(=O)C1C(=O)CCC2CN3CCc4c([nH]c5ccccc45)C3CC21 (configuration not stated)
inactive: dose: 12.5 mg/kg/injection, schedule: Q04DX002 (ip), vehicle: saline with Tween-80 94 % of control | dose: 25.0 mg/kg/injection, schedule: Q04DX002 (ip), vehicle: saline with Tween-80 100 % of control | dose: 50.0 mg/kg/injection, schedule: Q04DX002 (ip), vehicle: saline with Tween-80 90 % of control

CCOC(=O)/C(C#N)=N\O
inactive: dose: 25.0 mg/kg/injection, schedule: Q04DX003 (ip), vehicle: saline 98 % of control | dose: 50.0 mg/kg/injection, schedule: Q01DX009 (ip), vehicle: saline 111 % of control | dose: 50.0 mg/kg/injection, schedule: Q04DX003 (ip), vehicle: saline 111 % of control | [3] 90 % of control | [6] 104 % of control and 88 % of control

Cn1c(=O)c2c(nc(N/N=C/c3cccc4ccccc34)n2C)n(C)c1=O
inactive: dose: 44.0 mg/kg/injection, schedule: Q01DX Z (ip), vehicle: saline 90 % of control | dose: 66.0 mg/kg/injection, schedule: Q01DX Z (ip), vehicle: saline 94 % of control | dose: 100.0 mg/kg/injection, schedule: Q01DX Z (ip), vehicle: saline 92 % of control

CC(C)C1(C)NC(=O)NC1=O (configuration not stated)
inactive: [6] 110 % of control | [7] 105 % of control | [8] 100 % of control

COc1ccc(C(C)(C)CC(=O)O)cc1OC
inactive: [12] 92 % of control | [13] 92 % of control | [14] 95 % of control

CCC(=O)OCc1cc2ccccc2c(-c2c(OC(=O)CC)c(COC(=O)CC)cc3ccccc23)c1OC(=O)CC
inactive: [12] 106 % of control | [13] 113 % of control | [14] 88 % of control

CC(=O)OC1CCC2(C)C(CCC3C2CCC2(C)C3CC3OC(CCCC(C)CO)C(C)C32)C1 (configuration not stated)
inactive: dose: 25.0 mg/kg/injection, schedule: Q01DX001 (ip), vehicle: saline with Tween-80 88 % of control | dose: 50.0 mg/kg/injection, schedule: Q01DX001 (ip), vehicle: saline with Tween-80 98 % of control | [12] 95 % of control | [14] 95 % of control

Reference: PubChem BioAssay AID248 (DTP/NCI, 2004)
